Measured values as given in US9221838B2, “Inhibitors of AKT activity” (ALMAC DISCOVERY LIMITED, priority 2009, dated 2015).

Tests used:
[1] = target: T1, AKT2 (Homo sapiens, UniProt P31751); test: AKT Kinase Assay (IMAP fluorescent polarisation) vs AKT2; type: biochemical
T1 construct: purchased SignalChem
In short: (§1)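 Phosphorylation of FAM-Crosstide detected by IMAP binding and fluorescence polarisation (485/528 nm), with IC50 fitted from % inhibition versus vehicle. Compound was incubated 45 min with enzyme, then reacted 1 h at room temperature with ATP and peptide in Tris/MgCl2/DTT buffer. Dose response had fourteen half-log points.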

[2] = target: T2, AKT3 (Homo sapiens, UniProt Q9Y243); test: AKT Kinase Assay (IMAP fluorescent polarisation) vs AKT3; type: biochemical
T2 construct: purchased SignalChem
T2 sequence (Q9Y243 whole entry): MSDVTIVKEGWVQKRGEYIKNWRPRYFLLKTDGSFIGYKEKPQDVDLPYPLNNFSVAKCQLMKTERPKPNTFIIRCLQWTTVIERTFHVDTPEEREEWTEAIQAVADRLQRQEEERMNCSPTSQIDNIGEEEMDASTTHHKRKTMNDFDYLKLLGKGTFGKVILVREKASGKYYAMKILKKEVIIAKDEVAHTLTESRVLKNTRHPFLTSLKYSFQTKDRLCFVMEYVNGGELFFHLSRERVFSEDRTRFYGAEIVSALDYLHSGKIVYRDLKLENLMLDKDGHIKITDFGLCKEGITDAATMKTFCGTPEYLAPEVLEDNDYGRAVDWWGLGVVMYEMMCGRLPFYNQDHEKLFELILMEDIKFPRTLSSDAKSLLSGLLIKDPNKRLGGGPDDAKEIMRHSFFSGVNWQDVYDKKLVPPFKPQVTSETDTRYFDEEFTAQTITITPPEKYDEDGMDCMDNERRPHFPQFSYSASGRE
In short: as §1

[3] = target: T3, AKT1 (Homo sapiens, UniProt P31749); test: AKT Kinase Assay (IMAP fluorescent polarisation) vs AKT1; type: biochemical
T3 construct: purchased SignalChem
T3 sequence (P31749 whole entry): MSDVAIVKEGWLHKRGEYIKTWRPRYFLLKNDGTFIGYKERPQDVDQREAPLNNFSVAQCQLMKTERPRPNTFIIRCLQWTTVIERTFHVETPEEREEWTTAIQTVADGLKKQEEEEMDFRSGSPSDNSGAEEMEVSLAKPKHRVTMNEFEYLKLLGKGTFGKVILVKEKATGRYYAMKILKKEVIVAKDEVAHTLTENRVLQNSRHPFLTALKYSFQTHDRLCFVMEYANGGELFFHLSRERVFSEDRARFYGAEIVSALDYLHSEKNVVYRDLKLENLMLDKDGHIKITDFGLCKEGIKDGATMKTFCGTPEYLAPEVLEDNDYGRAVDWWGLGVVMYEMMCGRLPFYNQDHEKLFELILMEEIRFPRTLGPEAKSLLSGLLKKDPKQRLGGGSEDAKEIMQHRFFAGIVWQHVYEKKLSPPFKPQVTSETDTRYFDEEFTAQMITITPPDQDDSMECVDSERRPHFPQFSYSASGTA
In short: as §1

[4] = tested on: PC3 and/or LnCaP cell lines; test: in vitro cell proliferation assay (Cell Titre Glo); type: cell-based; settings: Homo sapiens, read-out: inhibition of proliferation, IC50
Protocol: Testing of the compounds was also performed using in vitro cell proliferation assays:
Cell Titre Glo (Promega) is a highly sensitive homogeneous reagent used to determine the viability of cells. The reagent uses a stable form of luciferase to measure ATP as an output of viability. The luminescent values generated in the assay are directly proportional to the number of viable cells in your assay.
The following materials were used: White, clear bottomed 96 well assay plates (Costar); Cell titre Glo reagents; LnCaP (ECACC) cells grown in RPMI medium (Invitrogen) supplemented with 10 mM HEPES (Invitrogen), 1 mM Sodium pyruvate (Invitrogen), 2 mM L-Glutamine (Invitrogen) and 10% Foetal calf serum (Invitrogen); PC3 (ECACC) cells grown in RPMI medium supplemented with 10% Foetal calf serum (Invitrogen); Trypsin (Invitrogen); PBS (Invitrogen); Biotek Synergy 4 Hybrid Plate reader; 96 well plate shaker (Stuart SSL5); Eppendorf 5414 desk-top centrifuge; Beckman Coulter cell counter Z1 single threshold system.
Prostate cell lines, PC3 and LnCaP, were washed, detached and re-suspended in their respective fresh media. The cells were pelleted by centrifugation (Eppendorf 5414) and spent supernatant discarded. The cells were re-suspended by vortex mixing, counted and seeded into clear bottom white 96 well plates at a density of 5000 cells per well. The cells were incubated (Sanyo) overnight at 37° C. ([…]), and next day treated with increasing concentrations of test compound formulated in fresh medium. The plates were returned to the incubator for 72 hours. […]
The cell viability post compound treatment was determined by the luminescent intensity emitted from the drug treated wells in the plate. In brief, the assay plate was placed in the Biotex Synergy 4 Hybrid plate reader and the luminescence read in each well. The compound treated wells were compared to vehicle treated wells and the % inhibition of cell viability calculated.
The data was analysed using GraphPad Prism, with IC50 values generated using non-linear regression of the data set.

T1 sequence (P31751 whole entry): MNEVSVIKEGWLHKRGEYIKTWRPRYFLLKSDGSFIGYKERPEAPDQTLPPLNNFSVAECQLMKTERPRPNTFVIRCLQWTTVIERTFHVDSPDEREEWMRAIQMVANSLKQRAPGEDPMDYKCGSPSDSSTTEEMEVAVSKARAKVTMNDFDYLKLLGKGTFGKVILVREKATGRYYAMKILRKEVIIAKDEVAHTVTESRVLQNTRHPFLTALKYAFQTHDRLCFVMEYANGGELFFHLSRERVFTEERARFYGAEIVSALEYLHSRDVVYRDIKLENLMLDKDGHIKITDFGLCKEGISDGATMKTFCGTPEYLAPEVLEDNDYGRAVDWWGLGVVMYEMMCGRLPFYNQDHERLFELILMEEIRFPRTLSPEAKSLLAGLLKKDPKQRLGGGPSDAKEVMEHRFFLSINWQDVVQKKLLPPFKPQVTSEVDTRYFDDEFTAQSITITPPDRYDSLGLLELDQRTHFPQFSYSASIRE

Row | Compound | IC50 [1] [nM] | IC50 [2] [nM] | IC50 [3] [nM] | IC50 [4] [nM]
1 | NC1(c2ccc(-c3nc4c(cc3-c3ccccc3)-c3nncn3CC4)cc2)CCC1 [Example 28, 1-(4-(9-phenyl-5,6-dihydro-[1,2,4]triazolo[3,4-f][1,6]naphthyridin-8-yl)phenyl)cyclobutanamine] | 100 to 1000 | > 10000 | 1000 to 10000 | < 10000
2 | CN1C(=O)COc2nc(-c3ccc(C4(N)CCC4)cc3)c(-c3ccccc3)cc21 [Example 31, 6-(4-(1-aminocyclobutyl)phenyl)-1-methyl-7-phenyl-1H-pyrido[2,3-b][1,4]oxazin-2(3H)-one] | 100 to 1000 | 1000 to 10000 | ≤ 100 | < 10000
3 | CC12CCc3nc(-c4ccc(C5(N)CCC5)cc4)c(-c4ccccc4)cc3C1=NNC2=O (centres unmarked) [Example 8, 7-(4-(1-aminocyclobutyl)phenyl)-3a-methyl-8-phenyl-4,5-dihydro-2H-pyrazolo[3,4-f]quinolin-3(3aH)-one] | 100 to 1000 | > 10000 | 100 to 1000 | –
4 | NC1(c2ccc(-c3nc4c(cc3-c3ccccc3)-n3c(Br)nnc3CO4)cc2)CCC1 [Example 92, 1-(4-(1-bromo-8-phenyl-4H-pyrido[2,3-b][1,2,4]triazolo[4,3-d][1,4]oxazin-7-yl)phenyl)cyclobutanamine] | 1000 to 10000 | 1000 to 10000 | 100 to 1000 | –
5 | Cn1cc2c(n1)-c1cc(-c3ccccc3)c(-c3ccc(C4(N)CCC4)cc3)nc1CC2 [Example 5, 1-(4-(2-methyl-8-phenyl-4,5-dihydro-2H-pyrazolo[3,4-f]quinolin-7-yl)phenyl)cyclobutanamine] | 1000 to 10000 | > 10000 | 100 to 1000 | –
6 | NC1(c2ccc(-c3nc4c(cc3-c3ccccc3)N(c3cccnc3)S(=O)(=O)CO4)cc2)CCC1 [Example 74, 6-(4-(1-aminocyclobutyl)phenyl)-7-phenyl-1-(pyridin-3-yl)-1H-pyrido[3,2-e][1,3,4]oxathiazine 2,2-dioxide] | 1000 to 10000 | > 10000 | 1000 to 10000 | –
7 | CN1C(=O)COc2nc(-c3ccc(C4(N)CCC4)cc3)c(-c3cccnc3)cc21 [Example 124, 6-(4-(1-aminocyclobutyl)phenyl)-1-methyl-7-(pyridin-3-0)-1H-pyrido[2,3-b][1,4]oxazin-2(3H)-one] | 1000 to 10000 | 1000 to 10000 | 1000 to 10000 | –
8 | CO/N=C1\COc2nc(-c3ccc(C4(N)CCC4)cc3)c(-c3ccccc3)cc2N1C [Example 90, 6-(4-(1-Aminocyclobutyl)phenyl)-1-methyl-7-phenyl-1H-pyrido[2,3-b][1,4]oxazin-2(3H)-one O-methyl oxime] | 100 to 1000 | > 10000 | 1000 to 10000 | –
9 | CCc1nnc2n1-c1cc(-c3ccccc3)c(-c3ccc([C@]4(N)C[C@](C)(O)C4)cc3)nc1OC2 [Example 138, (1r,3r)-3-amino-3-(4-(1-ethyl-8-phenyl-4H-pyrido[2,3-b][1,2,4]triazolo[4,3-d][1,4]oxazin-7-yl)phenyl)-1-methylcyclobutanol] | 100 to 1000 | 1000 to 10000 | ≤ 100 | –
10 | CN1C(=O)COc2nc(-c3ccc(C4(N)CC4)cc3)c(-c3ccccc3)cc21 [Example 149, 6-(4-(1-aminocyclopropyl)phenyl)-1-methyl-7-phenyl-1H-pyrido[2,3-b][1,4]oxazin-2(3H)-one] | 1000 to 10000 | > 10000 | 100 to 1000 | –
11 | CCNC(=O)N1CCOc2nc(-c3ccc(C4(N)CCC4)cc3)c(-c3ccccc3)cc21 [Example 88, 6-(4-(1-aminocyclobutyl)phenyl)-N-ethyl-7-phenyl-2,3-dihydro-1H-pyrido[2,3-b][1,4]oxazine-1-carboxamide] | > 10000 | > 10000 | > 10000 | –
12 | NC1(c2ccc(-c3nc4c(cc3-c3ccccc3)-n3c(nnc3C(F)F)CO4)cc2)CCC1 [Example 98, 1-(4-(1-(difluoromethyl)-8-phenyl-4H-pyrido[2,3-b][1,2,4]triazolo[4,3-d][1,4]oxazin-7-yl)phenyl)cyclobutanamine] | 100 to 1000 | 100 to 1000 | ≤ 100 | –
13 | NC1(c2ccc(-c3nc4c(cc3-c3ccccc3)-c3n[nH]c(NCCO)c3CC4)cc2)CCC1 [Example 12, 2-((7-(4-(1-aminocyclobutyl)phenyl)-8-phenyl-4,5-dihydro-2H-pyrazolo[3,4-f]quinolin-3-yl)amino)ethanol] | 1000 to 10000 | > 10000 | ≤ 100 | –
14 | N#CCN1C(=O)COc2nc(-c3ccc([C@]4(N)C[C@@H](O)C4)cc3)c(-c3ccccc3)cc21 [Example 147, 2-(6-(4-((1s,3s)-1-amino-3-hydroxycyclobutyl)phenyl)-2-oxo-7-phenyl-2,3-dihydro-1H-pyrido[2,3-b][1,4]oxazin-1-yl)acetonitrile] | 100 to 1000 | > 10000 | 100 to 1000 | –
15 | NC1(c2ccc(-c3nc4c(cc3-c3ccccc3)C(=O)CCC4)cc2)CCC1 [Example 1, 2-(4-(1-aminocyclobutyl)phenyl)-3-phenyl-7,8-dihydroquinolin-5(6H)-one] | 1000 to 10000 | > 10000 | 1000 to 10000 | –
16 | NC1(c2ccc(-c3nc4c(cc3-c3ccccc3)NC(=O)C(CCO)O4)cc2)CCC1 (centres unmarked) [Example 71, 6-(4-(1-aminocyclobutyl)phenyl)-3-(2-hydroxyethyl)-7-phenyl-1H-pyrido[2,3-b][1,4]oxazin-2(3H)-one] | 1000 to 10000 | 1000 to 10000 | 100 to 1000 | –
17 | CS(=O)(=O)CN1C(=O)COc2nc(-c3ccc(C4(N)CCC4)cc3)c(-c3ccccc3)cc21 [Example 82, 6-(4-(1-aminocyclobutyl)phenyl)-1-(methylsulfonylmethyl)-7-phenyl-1H-pyrido[2,3-b][1,4]oxazin-2(3H)-one] | ≤ 100 | 1000 to 10000 | 1000 to 10000 | –
18 | N#CCN1C(=O)COc2nc(-c3ccc(C4(N)CCC4)cc3)c(-c3ccccc3)cc21 [Example 33, 2-(6-(4-(1-aminocyclobutyl)phenyl)-2-oxo-7-phenyl-2,3-dihydro-1H-pyrido[2,3-b][1,4]oxazin-1-yl)acetonitrile] | ≤ 100 | 100 to 1000 | ≤ 100 | –
19 | CC1Oc2nc(-c3ccc(C4(N)CCC4)cc3)c(-c3ccccc3)cc2NC1=O (centres unmarked) [Example 80, 6-(4-(1-aminocyclobutyl)phenyl)-3-methyl-7-phenyl-1H-pyrido[2,3-b][1,4]oxazin-2(3H)-one] | 100 to 1000 | > 10000 | 100 to 1000 | –
20 | CS(=O)(=O)c1[nH]nc2c1CCc1nc(-c3ccc(C4(N)CCC4)cc3)c(-c3ccccc3)cc1-2 [Example 10, 1-(4-(3-(methylsulfonyl)-8-phenyl-4,5-dihydro-2H-pyrazolo[3,4-f]quinolin-7-yl)phenyl)cyclobutanamine] | 1000 to 10000 | > 10000 | 100 to 1000 | –
21 | CN1C(=O)COc2nc(-c3ccc([C@]4(N)C[C@](C)(O)C4)cc3)c(-c3ccccc3)cc21 [Example 113, 6-(4-((1r,3r)-1-amino-3-hydroxy-3-methylcyclobutyl)phenyl)-1-methyl-7-phenyl-1H-pyrido[2,3-b][1,4]oxazin-2(3H)-one] | 100 to 1000 | 1000 to 10000 | ≤ 100 | –
22 | N[C@]1(c2ccc(-c3nc4c(cc3-c3ccccc3)N(CC(F)(F)F)C(=O)CO4)cc2)C[C@H](O)C1 [Example 148, 6-(4-((1s,3s)-1-amino-3-hydroxycyclobutyl)phenyl)-7-phenyl-1-(2,2,2-trifluoroethyl)-1H-pyrido[2,3-b][1,4]oxazin-2(3H)-one] | 100 to 1000 | > 10000 | 100 to 1000 | –
23 | NC1(c2ccc(-c3nc4c(cc3-c3ccccc3)N(Cc3cscn3)C(=O)CO4)cc2)CCC1 [Example 59, 6-(4-(1-aminocyclobutyl)phenyl)-7-phenyl-1-(thiazol-4-ylmethyl)-1H-pyrido[2,3-b][1,4]oxazin-2(3H)-one] | 100 to 1000 | 1000 to 10000 | 1000 to 10000 | –
24 | NC1(c2ccc(-c3nc4c(cc3-c3ccccc3)N(c3cccnc3)C(=O)CO4)cc2)CCC1 [Example 75, 6-(4-(1-aminocyclobutyl)phenyl)-7-phenyl-1-(pyridin-3-yl)-1H-pyrido[2,3-b][1,4]oxazin-2(3H)-one] | 1000 to 10000 | > 10000 | 1000 to 10000 | –
25 | CN(C)CCN1CCc2nc(-c3ccc(C4(N)CCC4)cc3)c(-c3ccccc3)cc2C1=O [Example 25] | 1000 to 10000 | > 10000 | 100 to 1000 | –
